# Test results as given in PMC12362618, “Development of the First Small-Molecule Inhibitor Targeting Oncostatin M for Treatment of Breast Cancer” (Journal of Medicinal Chemistry, 2025).
# Entries after “also recorded” stand apart in the source; their conditions may differ.
# What was measured:
# [1] = Aqueous solubility (comparison in words); assay type: physicochemical; settings: compared to other analogs
# OSM = biological target: T1, OSM (Homo sapiens, UniProt P13725); design: method as in earlier report of the authors (Mass et al.); settings: binds to OSM's site III pocket; ref earlier report of the authors (Mass et al.); read-out: dissociation constant (KD), previously described; cited from earlier work
# T1 sequence (P13725 26-252): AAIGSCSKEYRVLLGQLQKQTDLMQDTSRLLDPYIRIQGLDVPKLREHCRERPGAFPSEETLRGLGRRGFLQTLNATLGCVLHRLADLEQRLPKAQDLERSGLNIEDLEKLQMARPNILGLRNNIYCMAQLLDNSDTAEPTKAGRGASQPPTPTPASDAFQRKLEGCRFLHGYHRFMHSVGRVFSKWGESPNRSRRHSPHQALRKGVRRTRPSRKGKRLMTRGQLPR
# [2] = biological target: T2, gp130 binding to immobilized OSM (Homo sapiens, UniProt P13725); test: SPR surface competition binding assay between gp130 and SMI for immobilized OSM; settings: gp130 50 nM
# T2 construct: purchased R&D Systems 671-GP
# T2 sequence (P13725 26-212 limits assumed): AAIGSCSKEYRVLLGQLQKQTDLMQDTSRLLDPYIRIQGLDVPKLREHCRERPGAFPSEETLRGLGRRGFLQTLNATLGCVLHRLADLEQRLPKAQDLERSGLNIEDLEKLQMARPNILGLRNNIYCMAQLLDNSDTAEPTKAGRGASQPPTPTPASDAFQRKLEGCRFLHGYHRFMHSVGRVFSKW
# Method: SPR experiments were performed on a Reichert SR7000 instrument that was fed by a Surveyor LC autosampler and pump. All experiments were conducted at 25 °C. In all experiments, OSM (∼24 kDa; as previously described) was immobilized to the surface of a PEF-10% carboxyl mixed self-assembled monolayer gold sensor chip (Reichert part #13206061), and the experiments were completed within 3 days. The immobilization phase was conducted using sterile-filtered, fresh 10 mM acetate buffer, pH 5, at a flow rate of 15 μL/min. The chip was first washed with 100 μL of 2 M NaCl in DI water and 100 μL of 10 mM NaOH in DI water. The chip was activated with a 100 μL injection of 10 mg/mL N-hydroxysuccinimide (NHS) and 40 mg/mL 1-ethyl-3-(3-dimethylaminopropyl)­carbodiimide (EDC) mixed in 1 mL of nanopure water immediately before injecting. Then, a 200 μg/mL solution of OSM (100–300 μL) in acetate buffer was diluted and injected multiple times with 100 μL injections to achieve a response of about 600–1000 RU. The remaining reactive NHS groups were then deactivated with a 100 μL injection of 1 M ethanolamine hydrochloride in DI H2O. […] The real-time changes in refractive index units of the association and dissociation phases were monitored. […]
# gp130 = biological target: T3, gp130 (Homo sapiens, UniProt P40189); test: Fluorescence quenching check of SMI binding to gp130; settings: data not shown
# T3 construct: purchased R&D Systems 671-GP
# T3 sequence (P40189 23-619 limits assumed): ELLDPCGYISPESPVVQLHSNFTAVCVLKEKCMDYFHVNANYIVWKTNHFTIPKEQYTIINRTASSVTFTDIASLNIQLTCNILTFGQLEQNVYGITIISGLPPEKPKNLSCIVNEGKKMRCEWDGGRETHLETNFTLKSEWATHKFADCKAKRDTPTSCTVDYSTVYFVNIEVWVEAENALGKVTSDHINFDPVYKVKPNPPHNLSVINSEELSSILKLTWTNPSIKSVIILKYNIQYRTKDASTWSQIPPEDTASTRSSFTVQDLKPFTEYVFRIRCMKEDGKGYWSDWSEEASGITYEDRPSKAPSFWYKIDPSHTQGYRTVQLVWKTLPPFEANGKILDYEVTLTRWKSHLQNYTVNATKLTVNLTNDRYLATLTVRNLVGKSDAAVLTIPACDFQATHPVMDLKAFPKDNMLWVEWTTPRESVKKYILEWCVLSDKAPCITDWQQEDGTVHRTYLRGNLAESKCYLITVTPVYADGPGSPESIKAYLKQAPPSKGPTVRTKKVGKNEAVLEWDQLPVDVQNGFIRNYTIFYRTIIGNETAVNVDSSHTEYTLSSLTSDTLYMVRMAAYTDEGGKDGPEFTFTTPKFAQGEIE
# [3] = system: MCF-7-luc-OSM-overexpressing cells; assay type: in vivo
# Method: To evaluate SMI-10B13 on OSM inhibition in vivo, athymic nu/nu mice were randomized and given equal dose of either vehicle or SMI-10B13 (50 mg/kg) 12 h before tumor cell injection. Mice were then injected with 2 × 10^6 cells in the fourth mammary fat pad and monitored for tumor growth over 40 days, receiving either vehicle or SMI-10B13 treatment 3x weekly and evaluated for tumor growth until the end point of the experiment (Figure A).
# (§1) Seven- to eight-week-old athymic nu/nu mice were purchased from Jackson Laboratory and quarantined for 6 days. Twelve hours before tumor cell injection, the mice were grouped and injected intraperitoneally (i.p.) with 50 mg/kg of SMI-10B13 or vehicle (10% DMSO, 10% EtOH, 20% Cremophor EL, 60% propylene glycol; diluted in half with PBS). The following morning, MCF-7-Luc-flOSM cells (described above) were grown to 70–75% confluency, and the cells were concentrated to 4.0 × 10^7 cells/mL in PBS containing serum-free RPMI-1640. A 50 μL cell suspension was injected into the fourth mammary fat pad, resulting in 2.0 × 10^6 cells/injection. Mice were then injected (via i.p.) 3x weekly with SMI-10B13 or the vehicle control. Mice were also injected 1x weekly with D-luciferin (PerkinElmer; 122799–5) for bioluminescence detection for a period of 40–50 days, and 3x weekly for tumor growth via caliper measurement. Animals were sacrificed, and their serum and tumors were collected for analysis. Organs were harvested, and ex vivo imaging was performed to evaluate metastasis. All in vivo and ex vivo imaging was performed as previously described. All animal experiments were performed following the protocols evaluated and approved by the Boise State University Institutional Animal Care and Use Committee (IACUC) (Ethics Approval Number: AC23-043).
# [4] = system: MCF-7-luc-OSM-overexpressing breast tumor cells; test: ER+ orthotopic xenograft, survival and metastasis over 50 days; assay type: in vivo, athymic nu/nu mice
# Method: To evaluate the effectiveness of SMI-10B13 against survivability and metastasis, we performed a related but separate experiment. As before, mice were treated with either vehicle or SMI-10B13 12 h prior to tumor cell injection and monitored for tumor growth while receiving treatment 3x weekly (Figure A). […] After 50 days, all mice were sacrificed, and metastases were evaluated with ex vivo imaging. […] Thus, for the first time, we have shown that an anti-OSM small molecule inhibitor may inhibit breast cancer progression and metastasis.
# as §1
smiles,measurement,setting,value
"O=C(O)/C=C/c1cc(-c2ccc3c(c2)OCO3)c(-c2ccc3c(c2)OCO3)o1 [SMI-10B, (E)-3-(4,5-Bis(benzo[d][1,3]dioxol-5-yl)furan-2-yl)acrylic acid]",Aqueous solubility,[1],increased aqueous solubility compared to other analogs
same,Kd,OSM,< 13 µM
"O=C(O)/C=C/c1cc(-c2ccc3cc[nH]c3c2)c(-c2ccc3cc[nH]c3c2)o1 [SMI-10B13, (E)-3-(4,5-di(1H-Indol-6-yl)furan-2-yl)acrylic Acid]",Inhibition of gp130 binding to immobilized OSM,[2]; SMI 100 μM,almost completely inhibited
same,IC50,"[2]; SPR surface competition, estimated, read-out: estimated IC50 for inhibition of gp130 binding to immobilized OSM",30 to 100 µM
same,Binding to gp130,gp130,does not bind to gp130
same,Tumor size diameter (mm) at end point vs vehicle control,"[3]; 50 mg/kg i.p. 3x weekly, 40 days, caliper",significant reduction in tumor mm size
same,Bioluminescent tumor detection vs vehicle control,"[3]; 50 mg/kg i.p. 3x weekly, 40 days, weekly imaging",significant reduction in bioluminescent detection
same,Signs of drug-related toxicity in mice,"[3]; mouse, in vivo",none of the mice injected with SMI exhibited any signs of drug-related toxicity
same,Survival (Kaplan-Meier) vs vehicle,"[4]; 50 mg/kg i.p. 3x weekly, 50 days, p = 0.04",improved survival; also recorded: prolonged survival; also recorded: increase survival
same,Lung metastases fluorescent intensity (ex vivo imaging),"[4]; 50 mg/kg i.p. 3x weekly, after 50 days",41.9 × 10^5 intensity
same,Tumor size vs vehicle,"[4]; 50 days experiment, end point",overall smaller tumors
same,Lung metastasis intensity vs vehicle,"[4]; ex vivo imaging, 50 days",reduction in intensity was not statistically significant; also recorded: trend toward significance in decreasing lung metastasis intensity
